Test results from publication PMC9804084, “Multiple drug transporters contribute to the brain transfer of levofloxacin” (CNS Neuroscience & Therapeutics, 2022).
Where two headings read alike, the source gives them in different places.

Key:
[1] = system: Organic anion transporters (OATs); assay: In vivo microdialysis pharmacokinetics of LVFX with OATs inhibitor probenecid; design: species or system rat; conditions: for MRT / half-life / Tmax / AUC(0-inf) / Cmax / AUC(0-t) / Kp: rat, intravenous, with Probenecid 50 mg/kg i.p., PRO group, Probenecid 50 mg/kg i.p. + LVFX 50 mg/kg, N=5; for MRT / half-life / AUC(0-inf) / Cmax / AUC(0-t): mean ± SD; for AUC(0-t): read-out: AUC0–180 (converted)
Procedure: (§1) On the day of surgery, rats were anesthetized using inhaled isoflurane via a facemask. The rats were placed in a stereotaxic frame (Gene&I), and the body temperature was maintained with a homoeothermic blanket set at 37°C. A midline incision was made to expose the skull. According to the Paxinos and Watson atlas, two microdialysis intracerebral guide cannulae (Eicom Co.) were implanted into the hippocampus CA1 region (Hp‐CA1 coordinates: AP −4.16 mm; ML −2.2 mm; DV −2.9 mm) and lateral ventricle (LV coordinates: AP −1.4 mm; ML +2.2 mm; DV −3.4 mm). Fixed to the skull using a screw and dental cement. After 3 days of recovery, the rats were anesthetized with isoflurane again. An intravascular probe (TP‐100‐20; 20 mm, Eicom Co.) was implanted into the jugular vein toward the right atrium. After the blood microdialysis probe was positioned within the jugular vein, the pipeline was connected to perfuse with ACD solution (citric acid 3.5 mM; sodium citrate 7.5 mM; dextrose 13.6 mM) at a flow rate of […], and the Hamilton microinjection pump was used for continuous perfusion. After stopping isoflurane inhalation, the rats were allowed to wake up naturally on the homoeothermic blanket. The awake rats were placed in a device that allowed them to move freely. Animals were allowed to recover for an additional 24 h.
(§2) All microdialysate concentrations (C m) from the hippocampal ECF and lateral ventricle CSF were converted to the unbound drug concentration (C u) at the target site using the following formula: C u = C m/R dial.
(§3) A total of 32 rats were randomly divided into the following groups: • Control group, N = 12: vehicle solution + LVFX (50 mg/kg). • TAR group, N = 5: Tariquidar (8 mg/kg) + LVFX (50 mg/kg). • Ko143 group, N = 5: Ko143 (15 mg/kg) + LVFX (50 mg/kg). • MK571 group, N = 5: MK571 (20 mg/kg) + LVFX (50 mg/kg). • PRO group, N = 5: Probenecid (50 mg/kg) + LVFX (50 mg/kg).
(§4) Levofloxacin was freshly dissolved in isotonic saline and administered via tail vein injection. Thirty minutes before LVFX administration, the intervention drugs of each group were injected intraperitoneally. To reduce the possible effect of solvents on BBB or BCSFB permeability of LVFX, we prioritized water as the solvent. However, Tariquidar and Ko143 are insoluble in water, and a cosolvent must be used to prepare agents that animals can tolerate. According to the different physicochemical properties of these four inhibitors, the preparation of each transporter inhibitor solution in this experiment was as follows. • P‐glycoprotein (P‐gp) inhibitor Tariquidar[22]: Tariquidar was freshly dissolved in DMSO to 8 mg/ml and then diluted to 4 mg/ml with a solution containing 10% Tween‐80, 25% PEG300, and 65% sterile water. • Breast cancer resistance protein (BCRP) inhibitor Ko143[23]: Ko143 was freshly dissolved in DMSO to 15 mg/ml and then diluted to 7.5 mg/ml with a solution containing 10% Tween‐80, 25% PEG300, and 65% sterile water. • Multidrug resistance‐associated proteins (MRPs) inhibitor MK571[24]: MK571 sodium salt hydrate was dissolved in 1.25% (w/v) aq sodium hydrogen carbonate (NaHCO3) solution to obtain a concentration of 10 mg/ml. • Organic anion transporters (OATs) inhibitor probenecid[25]: Probenecid was dissolved in NaOH (pH = 9.0–9.2) alkalized physiological saline to obtain a concentration of 25 mg/ml.
(§5) The pipelines where the blood and brain probes were installed were perfused at the speed of 2 μl/min with ACD solution and ACSF, respectively. Two brain probes were inserted into guide cannulas of the target site and allowed to equilibrate for 1 h. Subsequently, the rats were treated according to their corresponding groups in the device where they could move freely. Microdialyses samples were collected every 15 min using a fraction collector (EFC‐96, Eicom Co.) for 3 h and stored at 4°C until analysis. Finally, rats were anesthetized and decapitated, and their brain was harvested.

P-glycoprotein (P-gp) = assay: In vivo microdialysis pharmacokinetics of LVFX with P-gp inhibitor Tariquidar; design: species or system rat; conditions: for MRT / Tmax / AUC(0-inf) / Cmax / half-life / AUC(0-t) / Kp: rat, intravenous, with Tariquidar 8 mg/kg i.p., TAR group, Tariquidar 8 mg/kg i.p. + LVFX 50 mg/kg, N=5; for MRT / AUC(0-inf) / Cmax / half-life / AUC(0-t): mean ± SD; for AUC(0-t): read-out: AUC0–180 (converted)
Procedure: as §1, §2, §3, §4, §5

[2] = blood, PRO group (probenecid 50 mg/kg) vs control group
[3] = CSF (lateral ventricle microdialysate, unbound), 30 min before LVFX, CSF
[4] = CSF (lateral ventricle microdialysate, unbound), CSF
[5] = CSF / blood (unbound, microdialysate), 30 min before LVFX, AUCu,CSF/AUCu,blood, read-out: K p,uu,CSF
[6] = brain ECF (hippocampal microdialysate, unbound), 30 min before LVFX, brain ECF
[7] = brain ECF / blood, 30 min before LVFX, AUCu,ECF/AUCu,blood, read-out: K p,uu,ECF

## C[C@H]1COc2c(N3CCN(C)CC3)c(F)cc3c(=O)c(C(=O)O)cn1c23 [LVFX, Levofloxacin]
[1]; [2]
  AUC0–180 higher than control group: 128.6%
  AUC0–∞ higher than control group: 143.0%
  C max greater than control group: 71.2%
  MRT longer than control group: 1.29 times
  t 1/2 longer than control group: 1.28 times
[1]; [3]
  MRT: 87.9 min
  half-life: 57.5 ± 7.55 min
[1]; [4]
  Tmax: 15 min
  AUC(0-inf): 9510 ng·h/mL
  Cmax: 6800 ± 240 ng/mL
  AUC(0-t): 8330 ng·h/mL
[1]; [5]
  Kp: 0.359 ± 0.008
[1]; [6]
  Tmax: 15 min
  AUC(0-inf): 9220 ng·h/mL
  Cmax: 5850 ± 180 ng/mL
  half-life: 67 ± 16.8 min
  AUC(0-t): 7830 ng·h/mL
[1]; [7]
  Kp: 0.337 ± 0.012
[1]; 30 min before LVFX, blood
  Tmax: 15 min
  AUC(0-inf): 27000 ng·h/mL
  Cmax: 17500 ± 600 ng/mL
  MRT: 94.9 min
  half-life: 63.1 ± 9.61 min
  AUC(0-t): 23200 ng·h/mL
[1]; 30 min before LVFX, brain ECF
  MRT: 96.5 min
P-glycoprotein (P-gp); Tariquidar 8 mg/kg i.p. + LVFX 50 mg/kg vs control group
  change in LVFX in the rat brain after Tariquidar: no significant change
P-glycoprotein (P-gp); [3]
  MRT: 80 min
P-glycoprotein (P-gp); [4]
  Tmax: 15 min
  AUC(0-inf): 4540 ng·h/mL
  Cmax: 3590 ± 280 ng/mL
  half-life: 50.5 ± 18.6 min
  AUC(0-t): 3900 ng·h/mL
P-glycoprotein (P-gp); [5]
  Kp: 0.37 ± 0.013
P-glycoprotein (P-gp); [6]
  Tmax: 15 min
  AUC(0-inf): 4580 ng·h/mL
  Cmax: 2810 ± 450 ng/mL
  MRT: 86.1 min
  half-life: 52.9 ± 9.83 min
  AUC(0-t): 4100 ng·h/mL
P-glycoprotein (P-gp); [7]
  Kp: 0.368 ± 0.035
P-glycoprotein (P-gp); 30 min before LVFX, blood
  Tmax: 15 min
  AUC(0-inf): 11800 ng·h/mL
  Cmax: 10400 ± 760 ng/mL
  MRT: 69.2 min
  half-life: 40 ± 6.51 min
  AUC(0-t): 11100 ng·h/mL
